Numbering of substitutions follows the chain as printed.
Columns and labels:
E275D Slo2.1 channels = target: T1, E275D Slo2.1 channels (Homo sapiens, UniProt Q6UVM3, E275D); assay: Activation of ISlo2.1 by NFA, two-electrode voltage clamp in oocytes; assay type: cell-based
T1 sequence (Q6UVM3 1-1135 E275D): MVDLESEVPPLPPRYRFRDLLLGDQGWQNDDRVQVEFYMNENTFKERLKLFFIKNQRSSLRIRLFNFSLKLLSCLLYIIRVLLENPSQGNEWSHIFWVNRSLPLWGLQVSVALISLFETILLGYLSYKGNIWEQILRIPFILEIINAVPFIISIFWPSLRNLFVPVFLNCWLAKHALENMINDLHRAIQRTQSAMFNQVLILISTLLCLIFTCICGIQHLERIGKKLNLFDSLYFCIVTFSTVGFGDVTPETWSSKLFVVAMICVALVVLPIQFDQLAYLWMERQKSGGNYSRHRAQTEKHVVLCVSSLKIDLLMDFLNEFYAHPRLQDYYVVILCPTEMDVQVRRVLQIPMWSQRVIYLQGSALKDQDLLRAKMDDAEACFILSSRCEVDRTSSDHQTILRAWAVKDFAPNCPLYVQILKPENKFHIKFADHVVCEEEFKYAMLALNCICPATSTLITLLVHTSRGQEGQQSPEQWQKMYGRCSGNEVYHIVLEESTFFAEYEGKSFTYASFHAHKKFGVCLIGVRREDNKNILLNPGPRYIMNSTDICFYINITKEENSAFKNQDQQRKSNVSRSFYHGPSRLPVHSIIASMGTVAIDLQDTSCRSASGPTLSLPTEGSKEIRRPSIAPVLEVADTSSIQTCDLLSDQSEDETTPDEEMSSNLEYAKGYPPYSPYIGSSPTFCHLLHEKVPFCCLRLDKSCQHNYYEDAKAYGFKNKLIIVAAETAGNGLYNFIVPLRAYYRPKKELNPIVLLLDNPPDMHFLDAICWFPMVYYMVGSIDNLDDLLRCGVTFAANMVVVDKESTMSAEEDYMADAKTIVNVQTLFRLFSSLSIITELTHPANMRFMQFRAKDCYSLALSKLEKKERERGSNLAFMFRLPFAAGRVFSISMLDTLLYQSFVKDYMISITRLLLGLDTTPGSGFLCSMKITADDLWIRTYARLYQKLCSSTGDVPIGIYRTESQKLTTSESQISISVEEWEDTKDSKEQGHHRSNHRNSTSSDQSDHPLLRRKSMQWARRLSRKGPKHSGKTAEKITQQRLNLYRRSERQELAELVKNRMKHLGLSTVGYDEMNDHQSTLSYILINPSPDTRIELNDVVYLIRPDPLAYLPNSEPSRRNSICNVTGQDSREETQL

WT Slo2.1 channels [1] = target: T2, WT Slo2.1 channels (Homo sapiens, UniProt Q6UVM3); conditions: 1 mM NFA; ref Dai et al., 2010; cited from earlier work
T2 sequence (Q6UVM3 1-1135): T1 sequence (Q6UVM3 1-1135 E275D) with D275E

WT Slo2.1 channels [2] = target: T2, WT Slo2.1 channels; assay: Activation of ISlo2.1 by NFA, two-electrode voltage clamp in oocytes; assay type: cell-based

## O=C(O)c1cccnc1Nc1cccc(C(F)(F)F)c1 [NFA, niflumic acid]
E275D Slo2.1 channels
  EC50: 192 µM
E275D Slo2.1 channels; E275D
  Hill coefficient nH of NFA activation: 1.08 ± 0.09
E275D Slo2.1 channels; E275D vs WT
  EC50 for E275D lower than EC50 for WT channels: 11 fold
E275D Slo2.1 channels; E275D, 3 mM NFA (maximally effective concentration)
  maximal increase in current at 0 mV: ~2.5 fold
WT Slo2.1 channels [1]
  effective valence z: 0.48 e
  midpoint of voltage dependence of channel activation: +95 mV
WT Slo2.1 channels [2]
  EC50: 2100 ± 100 µM
WT Slo2.1 channels [2]; 6 mM NFA, oocytes injected with ≤1 ng WT cRNA
  time to peak response of ISlo2.1 during repetitive pulsing: ~3 min
